Data: patent US20210038579A1, “Treatment Of Patients With Classic Fabry Disease” (Amicus Therapeutics, Inc., priority 2018, published 2021)
Substitutions are numbered along the chain they refer to.

How the values were obtained:
Experiment in all cases: HEK assay: α-Gal A activity in HEK-293 cell lysate with migalastat
Format in all cases: cell-based
[1] = target: T1, α-Gal A mutant form p.Ala156Thr (c.466 G > A) (Homo sapiens, UniProt P06280, A156T)
T1 construct: expressed in transfected cells; host or cells: HEK-293
T1 sequence (P06280 32-429 A156T): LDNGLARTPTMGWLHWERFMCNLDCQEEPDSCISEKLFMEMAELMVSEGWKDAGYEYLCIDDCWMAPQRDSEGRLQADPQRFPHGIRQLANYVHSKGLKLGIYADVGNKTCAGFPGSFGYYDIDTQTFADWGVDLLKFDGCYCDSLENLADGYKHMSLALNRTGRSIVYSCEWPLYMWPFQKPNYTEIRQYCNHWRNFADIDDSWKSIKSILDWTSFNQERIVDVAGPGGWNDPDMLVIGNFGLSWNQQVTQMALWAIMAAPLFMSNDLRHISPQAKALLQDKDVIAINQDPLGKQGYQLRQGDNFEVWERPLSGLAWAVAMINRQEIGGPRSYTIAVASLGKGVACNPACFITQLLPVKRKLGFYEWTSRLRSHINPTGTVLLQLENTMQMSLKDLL
Procedure, shortened: (§1)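 HEK-293 cells are transfected transiently with cDNA for each missense or small in-frame indel α-Gal A mutant. They are cultured ±migalastat across 17 nM to 1 mM over 4 to 5 days, after which lysate enzyme is quantified fluorogenically (4-MU-α-Gal) or by immunoblot.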

[2] = target: T2, α-Gal A mutant form p.Arg112His (c.335 G > A) (Homo sapiens, UniProt P06280, R112H)
T2 construct: expressed in transfected cells; host or cells: HEK-293
T2 sequence (P06280 32-429 R112H): T1 sequence (P06280 32-429 A156T) with R81H, T125A
Procedure, shortened: as §1

[3] = target: T3, α-Gal A mutant form p.Asp264Tyr (c.790 G > T) (Homo sapiens, UniProt P06280, D264Y)
T3 construct: expressed in transfected cells; host or cells: HEK-293
T3 sequence (P06280 32-429 D264Y): T1 sequence (P06280 32-429 A156T) with T125A, D233Y
Procedure, shortened: as §1

[4] = target: T4, α-Gal A mutant form p.Asp55Val/Glu57Leu (c.164 A > T; c.170 A > T) (Homo sapiens, UniProt P06280, D55V/Q57L)
T4 construct: expressed in transfected cells; host or cells: HEK-293
T4 sequence (P06280 32-429 D55V/Q57L): T1 sequence (P06280 32-429 A156T) with D24V, Q26L, T125A
Procedure, shortened: as §1

[5] = target: T5, α-Gal A mutant form p.Pro259Arg (c.776 C > G) (Homo sapiens, UniProt P06280, P259R)
T5 construct: expressed in transfected cells; host or cells: HEK-293
T5 sequence (P06280 32-429 P259R): T1 sequence (P06280 32-429 A156T) with T125A, P228R
Procedure, shortened: as §1

[6] = +10 μM migalastat, HEK-293 cell lysate, mean ± SEM, n = 20
[7] = HEK293, 10 μM migalastat minus baseline, read-out: Absolute increase at 10 μM (% WT)

Q: `OC[C@H]1NC[C@H](O)[C@@H](O)[C@H]1O` [migalastat] was tested. Which “α-Gal A activity at 10 μM (fold over baseline)” value ([1]; 10 μM migalastat) did it give?
A: The value was 7.75 fold over baseline.

Q: What about the “+Migalastat α-Gal A activity” value [1, 6] of the same compound?
A: Its value is 7034 ± 289 nmol/mg/h.

Q: What about the “+Migalastat α-Gal A activity % WT” value [1, 6] of the same compound?
A: Its value is 21.9 ± 0.9 % WT.

Q: And the activation at 10 µM [1, 7]?
A: Its activation at 10 µM is 19.1%.

Q: What about the “α-Gal A activity at 10 μM (fold over baseline)” value ([2]; 10 μM migalastat) of the same compound?
A: Its value is 6.61 fold over baseline.

Q: And the “+Migalastat α-Gal A activity” value [2, 6]?
A: Its value is 5583 ± 215 nmol/mg/h.

Q: And the “+Migalastat α-Gal A activity % WT” value [2, 6]?
A: The value was 17.4 ± 0.8 % WT.

Q: And the activation at 10 µM [2, 7]?
A: Its activation at 10 µM is 14.8%.

Q: And the “α-Gal A activity at 10 μM (fold over baseline)” value ([3]; 10 μM migalastat)?
A: Its value is 12.89 fold over baseline.

Q: What about the “+Migalastat α-Gal A activity” value [3, 6] of the same compound?
A: Its value is 1842 ± 100 nmol/mg/h.

Q: What about the “+Migalastat α-Gal A activity % WT” value [3, 6] of the same compound?
A: The value was 6.2 ± 0.3 % WT.

Q: And the activation at 10 µM [3, 7]?
A: The activation at 10 µM was 5.7%.

Q: And the activation at 10 µM ([4]; 10 μM migalastat minus baseline, read-out: Absolute increase at 10 μM (% WT))?
A: The activation at 10 µM was 8%.

Q: And the “+Migalastat α-Gal A activity” value [4, 6]?
A: The value was 2526 ± 287 nmol/mg/h.

Q: What about the “+Migalastat α-Gal A activity % WT” value [4, 6] of the same compound?
A: Its value is 8.0 ± 0.5 % WT.

Q: What about the “α-Gal A activity at 10 μM (fold over baseline)” value ([5]; 10 μM migalastat) of the same compound?
A: The value was 2.64 fold over baseline.

Q: What about the “+Migalastat α-Gal A activity” value [5, 6] of the same compound?
A: Its value is 17645 ± 515 nmol/mg/h.

Q: What about the “+Migalastat α-Gal A activity % WT” value [5, 6] of the same compound?
A: The value was 60.3 ± 3.8 % WT.

Q: What about the activation at 10 µM [5, 7] of the same compound?
A: The activation at 10 µM was 37%.
